We go through six compounds from BindingDB's records for doi:10.7270/Q2M043S8 (University of Pittsburgh, 2006).

Some results are limits rather than exact numbers.

This experiment has as its target T1, Dual specificity protein phosphatase 6 (Rattus norvegicus, UniProt Q64346).
T1 sequence (Q64346 whole entry): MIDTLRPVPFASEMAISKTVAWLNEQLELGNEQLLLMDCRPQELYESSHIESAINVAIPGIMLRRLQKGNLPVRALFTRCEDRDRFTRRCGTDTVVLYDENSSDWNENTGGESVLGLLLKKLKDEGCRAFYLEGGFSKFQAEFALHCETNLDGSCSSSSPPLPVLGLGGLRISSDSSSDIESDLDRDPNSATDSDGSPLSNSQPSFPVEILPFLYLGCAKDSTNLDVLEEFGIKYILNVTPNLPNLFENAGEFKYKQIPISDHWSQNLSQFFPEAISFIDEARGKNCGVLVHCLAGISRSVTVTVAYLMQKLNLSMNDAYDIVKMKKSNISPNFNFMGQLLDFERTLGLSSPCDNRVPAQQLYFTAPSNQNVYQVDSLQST
Description: MKP-3 phosphatase inhibition with catalase present, dose response, biochemical, rat DUSP6, catalase added, probe assessment (AID 564).
In general, IC50 refers to the concentration needed to halve the response being measured. For `CCOC(=O)c1ccc2c(c1)C1C=CCC1C(C(=O)O)N2` (stereo unspecified) [MLS-0025126.0001], the IC50 is > 50 µM.

With `O=C(NC1(O)C(=O)c2ccccc2C1=O)c1ccccc1` [N-(2-hydroxy-1,3-dioxo-2-indenyl)benzamide], the IC50 was > 50 µM.

As to `O=C(OC1CCCCC1)c1ccc2c(c1)C1C=CCC1C(C(=O)O)N2` (stereo unspecified) [SMR000019385], the IC50 is > 50 µM.

Turning to `O=C1c2ccccc2-c2onc3ccc(NCCCn4ccnc4)c1c23` [SMR000044769], inhibition was half-maximal at 47.6 µM (IC50).

For the compound `CCCCn1c(NC(=O)c2ccccc2)c(C#N)c2nc3ccccc3nc21` [SMR000060333], the IC50 was > 50 µM.

Take `N#Cc1c(N2CCCC2)nc(N)c2c(N)nc(N3CCCC3)cc12` [SMR000061605]: the IC50 was > 50 µM.
